# Reference: patent US20210087525A1, “COST EFFECTIVE CULTURE MEDIA AND PROTOCOL FOR HUMAN INDUCED PLURIPOTENT STEM CELLS” (NORTHWESTERN UNIVERSITY, priority 2019, published 2021)
# Legend:
# hiPSC line 19-3 = assay: short-term 6-day hiPSC growth assay (media variable optimization); format: cell-based, human; details: for necessity of component for hiPSC growth: short-term assay, FIG. 2; for concentrations showing a similar effect on growth rate: FGF2-G3 compared with FGF2-K128N; for optimal / sufficient concentration for growth: one passage growth assay, FIG. 2E-F
# Description: FIG. 2A-F. Optimization of Basic Human Pluripotent Stem Cell Medium Constituents with a Short-Term Growth Assay. Results are normalized to initial medium component concentrations shown with a dark gray bar, optimizations were completed using short-term 6-day growth assay. […] (A) Comparison of the effect of recombinant human IGF1 LR3 (n=3) and recombinant human insulin (n=18-22) concentrations on relative growth. (B) L-ascorbic acid 2-phosphate (n=19-27). (C) Transferrin (n=2-20). (D) Sodium selenite (n=3-20). (E) FGF2-K128N (n=3-12). (F) TGFb1 (n=20-25). n=full experimental replicates, unpaired Student's T-test, *P≤0.05, **P≤0.01, ***P≤0.005, ****P≤0.0001, n.s.=not significant.
# FIG. 3A-H. Optimization of Additional Human Pluripotent Stem Cell Medium Constituents in a Short-Term Assay. E8 medium component concentrations are shown with a dark gray bar, optimizations were completed using a simple 6-day growth assay. […] (A) Comparison of the suitability of recombinant transferrin (10 μg ml−1) to support clonal growth with and without ROCK1/2 inhibition using Y27632 (10 μM) during the first 24 h after passage (n=3). (B) Comparison of two common ROCK1/2 inhibitors only during first 24 h after passage on relative growth (n>5). (C) Comparison of the effect of the addition of non-essential amino acids (NEAA) and chemically defined lipids (n=5) on relative growth. (D) Fatty acid-free albumin (n=4). (E) Sodium bicarbonate (n=5). (F) pH (n=9). (G) Osmolarity (n=8). (H) FGF2-G3 (n=3). n=full experimental replicates, unpaired Student's T-test, *P≤0.05, **P≤0.01, ***P≤0.005, ****P≤0.0001, n.s.=not significant.
# The hiPSC line 19-3 was dissociated with TrypLE (Gibco™, 12604-013) for 3 min at 37° C. and cells were resuspended in DMEM/F12, transferred to a 15 ml conical tube (Falcon) and centrifuged at 200×g for 3 min (Sorvall ST40). The pellet was resuspended in DMEM/F12, diluted to 1×10^5 cells per ml and 10,000 cells were plated per well in Matrigel® (1:800)-coated 12-well plates (Greiner) in the medium to be tested along with 2 μM thiazovivin for the first 24 h. Media were changed daily and cells were grown for 6 days. This lower than normal seeding density was used to allow the discovery of factors only detectable under more extreme conditions and therefore provide data on the robustness to the formulation.
# hiPSC = assay: long-term 5-passage, 4-day hiPSC growth assay; format: cell-based, human; details: for confirmed concentration in long-term assay: FIG. 5A-C; for necessity of component for hiPSC culture: long-term assay, removal of dispensable components reduces growth rate; for concentration confirmed / usable / required in long-term assay: FIG. 5D-L
# Description: FIG. 5A-P. Optimization of B8 Medium Constituents with a Long-Term Growth Assay. Results are normalized to initial medium component concentrations shown with a dark gray bar, optimizations were completed using long-term 5-passage, 4-day growth assay. Comparison of the effect of (A) recombinant human insulin concentration on relative growth (n=10). (B) L-ascorbic acid 2-phosphate (n=10). (C) Recombinant transferrin (n=10). (D) Sodium selenite (n=5). (E) In-house made FGF2-G3 (n=6). (G) NODAL (n=5). (H) Activin A (n=5). (I) In-house made TGFb3 after 9 passages compared to commercial TGFb1 (n=9). (J) Addition of NRG1 to 40 ng ml−1 FGF2-G3 (n>5). (K) Final B8 formula. n=full experimental replicates, unpaired Student's T-test, *P≤0.05, **P≤0.01, ***P≤0.005, ****P≤0.0001, n.s.=not significant.
# Our initial short-term experiments provided preliminary optimizations, yet we were aware from previous experiments that some variables, such as the elimination of TGFβ1, had minimal effects short-term and would only have detectable negative effects in long-term experiments. Thus the effectiveness of a long-term assay was evaluated with the following assay protocol: […]
# [1] = cited from earlier work
# phospho-ERK = assay: stimulation of phospho-ERK in FGF2-starved hiPSC by media stored at 37° C. (Western blot); format: cell-based, human
# Description: FIG. 7A-E. Qualification of B8 as Suitable for hiPSC Generation and Culture. […] (B) Expression of pluripotent markers in a variety of B8-derived hiPSC lines. (C) Example G-banding karyotype analysis of four hiPSC lines derived in B8 from blood. (D) hiPSC growth at low seeding densities in B8 compared to E8 (n=8). (E) Assessment of stimulation of phospho-ERK after media had been stored at 37° C. for 2 or 7 days, comparing in-house generated FGF2-G3 to a commercial FGF2 (Peprotech). hiPSC were starved of FGF2 for 24 h then treated with the indicated media for 1 h before collection for Western blot. Total ERK was used as a loading control.
# Stock lysis buffer was prepared as 150 mM NaCl, 20 mM Tris pH 7.5, 1 mM EDTA, 1 mM EGTA, and 1% Triton X-100 and stored at 4° C. Fresh complete lysis buffer was prepared with final concentration of 1× Protease Inhibitor (Roche, 5892791001), 1× Phosphatase Inhibitor Cocktail 2 (P5726, Sigma), 1× Phosphatase Inhibitor Cocktail 3 (Sigma, P0044), 2 mM PMSF (Sigma, P7626), and 1% SDS Solution (Fisher Scientific, BP2436200). hiPSC were starved using B8 without FGF2 for 24 hours, then treated with media containing the corresponding FGF2 for 1 h. Media was then removed, and cells were washed once with DPBS, harvested with 0.5 mM EDTA in DPBS, and transferred into tubes. Samples were pelleted by centrifugation at 500×g for 3 minutes and the supernatant was discarded. The pellet was resuspend in 150 μl complete lysis buffer and incubated on ice for 30 min. Clear lysates were collected by centrifugation at 10,000×g for 10 min at 4° C. The protein concentration was measured with Qubit Protein Assay Kit (Invitrogen, Q33211) and Qubit 4 fluorometer. Lysates was stored in −80° C. before use. 10 μg of sample was prepared with NuPAGE™ LDS Sample Buffer (Invitrogen, B0007) and NuPAGE™ Reducing Agent (Invitrogen, B0009) according to the manufacturer's instructions and run on NuPAGE™ 10% Bis-Tris Gel (Invitrogen, NP0302BOX) and Mini Gel Tank system (Invitrogen, A25977) with Bolt MES SDS Running Buffer (Invitrogen, B000202) at 100 V for 1 h. […]
molecule,measurement,setting,value
"O=C1O[C@H]([C@@H](O)CO)C(O)=C1OP(=O)(O)O.[Na+].[Na+].[Na+] [Ascorbic acid 2-phosphate, L-ascorbic acid 2-phosphate trisodium salt]",necessity of component for hiPSC growth,hiPSC line 19-3,not essential
same,confirmed concentration in long-term assay,hiPSC,200 µg/mL
same,necessity of component for hiPSC culture,hiPSC,dispensable
O=C([O-])O.[Na+] [sodium bicarbonate],optimal concentration for growth,hiPSC line 19-3; FIG. 3E,29 mM
O=[Se](O)O [sodium selenite],concentrations that did not significantly affect growth,hiPSC line 19-3; FIG. 2D,2 to 200 ng/mL
same,concentration confirmed / usable / required in long-term assay,hiPSC,20 ng/mL
"O=C(NCc1ccccc1)c1csc(Nc2ccncn2)n1 [thiazovivin, reference compound]",effect on growth vs 10 μM Y27632,"hiPSC line 19-3; 2 μM for the first 24 h after passage, FIG. 3B","marginally, though not significantly, improved growth"
"FGF2-K128N: recombinant human FGF2 with K128N substitution, made in-house in E. coli (SEQ ID NO: 4/14)",concentrations showing a similar effect on growth rate,hiPSC line 19-3; FIG. 3H,100 ng/mL
same,optimal / sufficient concentration for growth,hiPSC line 19-3,≥ 40 ng/mL
"FGF2: fibroblast growth factor 2, human FGF2 (SEQ ID NO: 3)",necessity of component for hiPSC growth,hiPSC line 19-3,essential
"IGF1 LR3: recombinant human IGF1 LR3 (Sigma, 91590C)",level of IGF1 LR3 able to replace insulin,"hiPSC line 19-3; FIG. 2A, not cost-effective",≥ 1 µg/mL
"TGFβ1: recombinant human TGFβ1 (112 amino acid, HEK293-derived, Peprotech)",optimal / sufficient concentration for growth,hiPSC line 19-3,≥ 0.5 ng/mL
same,concentration confirmed / usable / required in long-term assay,hiPSC,0.1 ng/mL
same,necessity of component for hiPSC culture,hiPSC,essential
"TGFβ1m: TGFβ1 with C77S point mutation, unable to form dimers, produced in E. coli",potency relative to TGFβ1 (fold less potent),"[1]; monomeric C77S protein, predicted (Kim et al., 2015)",~20 fold
TGFβ3: 112 amino acid TGFβ3 (SEQ ID NO: 16) made in E. coli as thioredoxin fusion protein,potency relative to TGFβ1,"[1]; Huang et al., 2014",more potent than TGFβ1
same,concentration confirmed / usable / required in long-term assay,hiPSC,0.1 ng/mL
"Transferrin: Oryza sativa-derived recombinant human transferrin (Optiferrin, InVitria)",concentration enhancing growth / giving optimal growth,hiPSC line 19-3; FIG. 2B-C,20 µg/mL
same,necessity of component for hiPSC growth,hiPSC line 19-3,not essential
same,confirmed concentration in long-term assay,hiPSC,20 µg/mL
same,necessity of component for hiPSC culture,hiPSC,dispensable
commercial FGF2: a commercial FGF2 (Peprotech) [reference compound],pERK stimulation after storage of media at 37° C.,phospho-ERK; 2 days at 37° C.,not capable of stimulating pERK
insulin: E. coli-derived recombinant human insulin (Gibco),concentration up to which effect on growth was dose-dependent,hiPSC line 19-3; FIG. 2A,up to 20 μg ml^−1
same,necessity of component for hiPSC growth,hiPSC line 19-3,essential
same,confirmed concentration in long-term assay,hiPSC,20 µg/mL
"FGF2-G3: thermostable FGF2 with nine point mutations, made in-house in E. coli (SEQ ID NO: 15) (protein) AAGSITTLPALPEDGGSGAFPPGHFKDPKLLYCKNGGFFLRIHPDGRVDGTRDKSDPFIKLQLQAEERGVVSIKGVCANRYLAMKEDGRLYAIKNVTDECFFFERLEENNYNTYRSRKYPSWYVALKRTGQYKLGSKTGPGQKAILFLPMSAKS",concentrations showing a similar effect on growth rate,hiPSC line 19-3; FIG. 3H,5 ng/mL
same,relative potency on growth rate,hiPSC line 19-3; FIG. 3H,more potent than FGF2-K128N
same,concentration confirmed / usable / required in long-term assay,hiPSC,40 ng/mL
same,stability (pERK stimulation) after storage of media at 37° C.,phospho-ERK; 7 days at 37° C.,stable
NRG1: 65 amino acid truncated neuregulin 1 containing just the EGF domain (SEQ ID NO: 17) (protein) SHLVKCAEKEKTFCVNGGECFMVKDLSNPSRYLCKCPNEFTGDRCQNYVMASFYKHLGIEFMEAE,enhancement of growth over FGF2-G3 alone,hiPSC; all tested levels of NRG1 added to 40 ng ml−1 FGF2-G3,> 15%
same,necessity of component for hiPSC culture,hiPSC,dispensable
same,support of growth in the absence of FGF2,hiPSC; no FGF2,not able to support growth
"NODAL: Activin/NODAL/TGFβ1 signaling source (protein, UniProt Q96S42 238-347, looked up) Nodal homolog: HHLPDRSQLCRKVKFQVDFNLIGWGSWIIYPKQYNAYRCEGECPNPVGEEFHPTNHAYIQSLLKRYQPHRVPSTCCAPVKTKPLSMLYVDNGRVLLDHHKDMIVEECGCL",concentration confirmed / usable / required in long-term assay,hiPSC,100 ng/mL
"Activin A: Activin/NODAL/TGFβ1 signaling source (protein, UniProt P08476 311-426, looked up, Inhibin beta A chain) Inhibin beta A chain: GLECDGKVNICCKKQFFVSFKDIGWNDWIIAPSGYHANYCEGECPSHIAGTSGSSLSFHSTVINHYRMRGHSPFANLKSCCVPTKLRPMSMLYYDDGQNIIKKDIQNMIVEECGCS",effect on growth in combination with TGFβ1,hiPSC; FIG. 5I,negative effect on growth
same,suitability to maintain growth,"hiPSC; alone, FIG. 5H",not suitable to maintain growth to the same level as TGFβ1
same,support of growth at very low doses,hiPSC; very low doses,"could support growth, albeit to a lesser extent than TGFβ1"
